Molecules are shown by their SMILES.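 Cells were grown in 96-well plates and exposed to each compound for 48 hours at five concentrations; endpoints were interpolated linearly between bracketing concentrations, or set to the highest concentration if not reached. The concentration for 50% growth inhibition is given as GI50.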 Activity calls are given as the source filed them. No stated cut-off is given here; in the data, active = GI50 up to about 1.1 µM and inactive = higher.

Among the test systems are ACHN; CCRF-CEM; EKVX; HCT-15; HT-29; NCI-H226; OVCAR-4; OVCAR-5; OVCAR-8; RXF 393; SF-268; SF-295; SF-539; SK-MEL-5; SN12C; SNB-19; SNB-75; UACC-257; UACC-62; UO-31.
Common to all, as to assay: NCI-60 cell line screen, 48 h

As for `Cc1ccc(NC(=O)OCC(COc2ccc(Cl)cc2)OC(=O)Nc2ccc(C)cc2)cc1` (stereo not given), the GI50 is 20.7 µM (inactive) in the assay with ACHN; 9.93 µM (inactive) in the assay on CCRF-CEM; 70.3 µM (inactive) in the assay with EKVX; 29.7 µM with HCT-15; 15.2 µM (inactive) with HT-29; 16.5 µM (inactive) with NCI-H226. In addition, the GI50 in the assay with OVCAR-4 is 13.7 µM (inactive); with OVCAR-5 it was 27.9 µM (inactive); with OVCAR-8 it was 81.3 µM (inactive); in the assay on RXF 393, 12.9 µM (inactive); with SF-268 it was 22.5 µM (inactive); with SF-295, 23.5 µM (inactive). Besides, the GI50 with SF-539 is 21.6 µM (inactive); in the assay on SK-MEL-5, 24.5 µM (inactive); with SN12C it was 20.4 µM (inactive); in the assay on SNB-19, 19.6 µM (inactive); in the assay with SNB-75 it was 14.5 µM (inactive); in the assay with UACC-257, 21.9 µM (inactive). For the same molecule, the GI50 in the assay with UACC-62 was 19.1 µM (inactive); in the assay on UO-31, 11.9 µM (inactive).
On to `CN1CN(c2ccccc2)C2(CCNCC2)C1=O`, for which the GI50 in the assay on ACHN was > 100 µM (inactive); in the assay with CCRF-CEM it was > 100 µM (inactive); in the assay on EKVX, > 100 µM (inactive); in the assay with HCT-15, over 100 µM; in the assay on HT-29 it was > 100 µM (inactive); with NCI-H226, > 100 µM (inactive). For the same molecule, the GI50 with OVCAR-4, with OVCAR-5, in the assay with OVCAR-8, in the assay with RXF 393, in the assay on SF-268 and in the assay with SF-295 was > 100 µM (inactive) each time. Further, the GI50 with SF-539, in the assay on SK-MEL-5, in the assay on SN12C, in the assay on SNB-19, in the assay with SNB-75 and with UACC-257 was > 100 µM (inactive) each time. Moreover, the GI50 in the assay with UACC-62 and with UO-31 was > 100 µM (inactive) in each case.
As to `CC(O)C(CO)NC(=O)C1CSSCC(NC(=O)C(N)Cc2ccccc2)C(=O)NC(Cc2ccccc2)C(=O)NC(Cc2c[nH]c3ccccc23)C(=O)NC(CCCCN)C(=O)NC(C(C)O)C(=O)N1` (stereo not given), the GI50 in the assay with ACHN was > 100 µM (inactive); in the assay on CCRF-CEM it was > 100 µM (inactive); with EKVX it was > 100 µM (inactive); with HCT-15, over 100 µM; in the assay with HT-29, > 100 µM (inactive); in the assay with NCI-H226, > 100 µM (inactive). In addition, the GI50 in the assay with OVCAR-4, in the assay with OVCAR-5, with OVCAR-8, in the assay on RXF 393, with SF-268 and with SF-295 was > 100 µM (inactive) throughout. Moreover, the GI50 in the assay on SF-539, in the assay on SK-MEL-5, with SN12C, with SNB-19, in the assay on SNB-75 and in the assay with UACC-257 was > 100 µM (inactive) each time. Also, the GI50 in the assay on UACC-62 and in the assay on UO-31 was > 100 µM (inactive) throughout.
On to `O=C(CC1(O)C(=O)Nc2c(Cl)cc(Cl)cc21)c1ccc([N+](=O)[O-])cc1` (stereo not given), for which the GI50 in the assay with ACHN was 38.6 µM (inactive); with CCRF-CEM, 26.7 µM (inactive); in the assay with EKVX, 43.4 µM (inactive); in the assay with HCT-15, over 55.3 µM; in the assay on HT-29, > 58.9 µM (inactive); in the assay on NCI-H226, 30.6 µM (inactive). Moreover, the GI50 was 17.5 µM (inactive) in the assay with OVCAR-4; > 100 µM (inactive) in the assay on OVCAR-5; > 51.5 µM (inactive) with OVCAR-8; > 100 µM (inactive) in the assay with RXF 393; > 50.8 µM (inactive) in the assay with SF-268; > 66.1 µM (inactive) with SF-295. The GI50 in the assay with SF-539 was > 46.7 µM (inactive); in the assay on SK-MEL-5, 22.8 µM (inactive); with SN12C it was > 45.7 µM (inactive); in the assay with SNB-19 it was > 100 µM (inactive); in the assay on SNB-75 it was 29.2 µM (inactive); in the assay on UACC-257, 33.3 µM (inactive). Further, the GI50 was 28.1 µM (inactive) in the assay with UACC-62 and 17.4 µM (inactive) in the assay on UO-31.
